Assay results taken from patent US20200129472A1, “COMPOSITIONS AND METHODS FOR THE TREATMENT OF PERIPHERAL ARTERY DISEASE” (BOARD OF REGENTS OF THE UNIVERSITY OF NEBRASKA, priority 2017, published 2020).
Entries after “also recorded” stand apart in the source; their conditions may differ.

Test system: rat model of peripheral arterial disease (PAD rats, femoral artery occlusion)
Experiment: Exercise intolerance test (motorized treadmill) in PAD rat model after epidural delivery of RTX
Format: in vivo
From the text: Catheter-based femoral artery occlusion was created by placing a modified PE50 catheter (its cavity filled with solid agarose) between common iliac artery and left femoral artery to interrupt hindlimb blood supply. The whole procedure is similar to the telemetry implant surgery. Generally, rats were anesthetized using a 2%-3% isoflurane:oxygen mixture. A warm water blanket was used to provide intra-operative heat support to prevent hypothermia. Rats were placed in the prone position and the surgical site (i.e., the femoral area) was cleared of hair, prepared with iodine or chlorhexidine, and the femoral artery was exposed. After a small incision was made, a modified PE50 catheter was placed into the femoral artery and advanced about 3.5 cm to the iliac artery at the aortic bifurcation. The distal end of the femoral artery was ligated with 4-0 Dexon suture. The skin was closed with external interrupted 4-0 or 3-0 prolene suture, which were removed in 10-14 days after the surgery.
Exercise testing for determination of intolerance time was performed in a motorized treadmill equipped with an electrical grid at the end of the lane. The animals were initially acclimated to the treadmill environment at a low speed (13 m/min, 0% grade) for 6 minutes. Then, data was recorded of the exercise duration and distance at the speed of the treadmill of 13 m/minute (0% grade) and increased of 3 m/minute each 2 minutes until exhaustion. Exhaustion was defined operationally as the time at which the rat was unable, or refused, to maintain its running speed for more than 15 seconds despite encouragement by mild electrical stimulation. The maximal speed and running distance were recorded when exhaustion occurred. Two methods were used to measure the exercise intolerance time in sham, PAD and PAD+RTX rats. With the first method, individual rats were run with 90%, 75%, 50% and 25% of its own maximal speed. The exercise intolerance time corresponding to individual running intensity was recorded and compared among groups. With the second method, a fixed running speed (37 m/minute) was used to run all rats among groups to get their exercise intolerance time.
To deplete skeletal muscle afferent neuron soma (L4-L5 DRGs), rats were anesthetized using 2%-3% isoflurane:oxygen mixture. Rats were placed in the prone position and the surgical site was cleared of hair, prepared with iodine or chlorhexidine. A small midline incision was made in the region of the T13-L1 thoracic vertebrae. Following dissection of the superficial muscles, a small hole (approximately 3 mm*3 mm) was made in the left side of T13 vertebral (ipsilateral). A polyethylene catheter (PE-10) was inserted into the subarachnoid space via left hole and gently advanced about 4.0 cm to the left L5 level in which the first injection (6 μg/ml, 10 μl) was made at a very slow speed to minimize the diffusion of RTX. Then the catheter was pulled back to left L4 to perform another injection (10 μl/each). Then the catheter was held for 15 minutes and then withdrawn. After that, silicon gels were used to seal the hole in the T13 vertebral. The skin overlying the muscle was closured by 3-0 polypropylene suture. Simple interrupted sutures were used to close the skin. Skin suture were removed 10-14 days after surgery. Betadine was applied to the wound and the rats were allowed to recover from the anesthesia.
The therapeutic efficacy of resiniferatoxin was tested in a in a rat model of peripheral arterial disease. As explained above, resiniferatoxin was administered to PAD rats by lumbar epidural administration at the time of femoral arterial occlusion. The resiniferatoxin (6 μg/ml, 10 μl/per ganglia) was injected between the ipsilateral L4 and L5 vertebrae into the epidural space at a concentration of 10 μl per ganglion. Healthy rats with sham treatment were also used as a positive control.

## C=C(C)[C@]12C[C@@H](C)[C@@]34O[C@@](Cc5ccccc5)(OC1C3C=C(COC(=O)Cc1ccc(O)c(OC)c1)C[C@]1(O)C(=O)C(C)=CC41)O2 (stereo partly drawn) [resiniferatoxin, [(1R,6R,13R,15R,17R)-13-benzyl-6-hydroxy-4,17-dimethyl-5-oxo-15-(prop-1-en-2-yl)-12,14,18-trioxapentacyclo[11.4.1.0^1,10.0^2,6.0^11,15]octadeca-3,8-dien-8-yl]methyl 2-(4-hydroxy-3-methoxyphenyl)acetate]
RTX 6 μg/ml, 10 μl per ganglion, lumbar epidural L4/L5, at the time of femoral arterial occlusion, FIG. 1D
  ability to run for longer distances at a higher rate (time running at percent maximum intensity): increased ability to run for longer distances at a higher rate
RTX 6 μg/ml, 10 μl per ganglion, lumbar epidural L4/L5, at the time of femoral arterial occlusion, fixed speed 37 m/minute, FIG. 1C
  ability to run at 37 m/minute (time run at 37 m/min): increased ability to run at 37 m/minute
RTX 6 μg/ml, 10 μl per ganglion, lumbar epidural L4/L5, at the time of femoral arterial occlusion, vs PAD+control, FIG. 1A
  running distance: increased running distances
RTX 6 μg/ml, 10 μl per ganglion, lumbar epidural L4/L5, at the time of femoral arterial occlusion, vs PAD+control, FIG. 1B
  maximal running speed: increased maximal running speed
RTX administered 4 weeks after femoral arterial occlusion (after onset of PAD), before vs after treatment, FIG. 2
  exercise limitations associated with PAD: reduces exercise limitations; also recorded: reduced the exercise limitations
RTX given at the time of femoral arterial occlusion, FIG. 1
  exercise limitations associated with PAD: reduces the exercise limitations
RTX given at the time of femoral arterial occlusion, time after PAD surgery
  duration of the statistically significant improvements in exercise performance: lasted for months
